In patent publication US6545167B1, “Simple and effective manufacturing process for large scale recovery of Nimbin, a Neem seed constituent” (Fortune Bio-Tech Limited, priority 2002, dated 2003):

Tests used:
[1] = test study of pure Nimbin in humans: analgesic effects; format: in vivo; details: pure Nimbin consumed orally (10 mg/day)
Description: (§1) For example, pure Nimbin has been consumed orally (10 mg/day) in a test study to observe therapeutic/pharmacological effects of the compound various systems/maladies in humans.

[2] = test system: several classes of insects (Lepidoptera, Coleoptera, Homoptera); assay: insecticidal action of Nimbin; format: in vivo; details: diamondback moth, imported cabbage worm, cabbage looper, tobacco budworm, Colorado potato beetle, green apple aphid, green peach aphid, potato leafhopper
benign tumors = assay: systemic administration of Nimbin: benign tumors; format: in vivo, humans
Description: as §1

skin = assay: topical administration of Nimbin: tone of the skin; format: in vivo, humans

In the case of `COC(=O)C[C@H]1[C@]2(C)C3=C(C)[C@H](c4ccoc4)C[C@H]3O[C@@H]2[C@H](OC(C)=O)[C@@H]2[C@]1(C)C(=O)C=C[C@@]2(C)C(=O)OC` [Nimbin], the analgesic effects [1] is reported as “analgesic effects”, the insecticidal action [2] is reported as “broad spectrum insecticidal action” and the “action on benign tumors” value (benign tumors) is reported as “regressive actions on benign tumors”. For the same compound, the “effect on tone of the skin” value (skin) was “modulates the tone of the skin”.
